Experimental data from US20240261236A1, “METHODS OF USING NMDA RECEPTOR ANTAGONISTS” (Seelos Therapeutics, Inc., priority 2021, published 2024).

How the values were obtained:
[1] = system: adults with major depressive disorder (MDD) who are at imminent risk of suicide; test: S-STS CMCM total score, Phase 2 Part 1; format: in vivo, human; conditions: for S-STS CMCM score: 90 mg IN+SOC, 24 hours post-administration; for S-STS mean score: baseline 21.9
From the text: The S-STS CMCM (version 01/01/19) is a clinician-rated outcome measure which assesses SI/B on a standard 22-item scale, as well as multiple patient and clinician-rated items. The first 16 items are rated on a Likert-type scale ranging from “not at all” (0 units) to “extremely” (4 units), where select scoring (i.e., 4 specific items are scored based on the highest score on 2 of those items) yields a total score ranging from 0 units to 52 units. The final 6 items are used only when the patient misses a visit and is unable to complete the scale; if that missed visit is due to attempted or completed suicide, the possible maximum score is 100. The CMCM also yields 5 different single-item global assessments: 1) subject-rated likelihood of a suicide attempt; 2) subject-rated treatment needed; 3) clinician global severity of suicidal impulses, thoughts, and behaviors; 4) clinician judgment of suicide risk at this time and level of management needed for suicidality; and 5) clinician judgment of subject's likelihood of making a suicide attempt or of dying by suicide in the next 7 days.
The secondary endpoints are the change from baseline at 24 hours, as well as at Day 16, in the following: • (1) S-STS total score • (2) MADRS Total at Day 16 (only) • (3) Clinical Global Impression (CGI) of Severity for SI/B (CGIS-SI/B) and Change in SI/B (CGIC-SI/B) • (4) Patient Global Impression (PGI) of Severity for SI/B (PGIS-SI/B) and Change in SI/B (PGIC-SI/B • (5) S-STS Clinician-Rated Global Severity of Suicidal Impulses, Thoughts, and Behaviors • (6) S-STS Clinician judgment of subject's risk of a suicide attempt or death by suicide at this time • (7) S-STS Clinician judgment of subject's likelihood (risk) of making a suicide attempt or of dying by suicide in the next 7 days • (8) S-STS Subject-rated global severity of suicidal impulses, thoughts, and behavior • (9) S-STS Subject-rated treatment needed score • (10) MADRS item 10 response rate (response ≤3 units) • (11) MADRS Total response (total score ≥50% reduction from baseline) • (12) MADRS Total remission (total score ≤12 units)
Subjects who were hospitalized due to an imminent risk of suicide were enrolled according to the inclusion criteria. The trial was initiated in the hospital and all subjects received standard of care (SOC) therapy for the duration of the study. Subjects were released from the hospital (approximately Day 7) once stabilized and continued the study in an outpatient manner. […] Following the conclusion of the treatment period, a 2-week safety follow-up was also conducted to determine maintenance of treatment efficacy and to monitor for any additional safety events. See, FIG. 26.

[2] = system: adults with major depressive disorder (MDD) who are at imminent risk of suicide; test: Treatment-emergent adverse events, Phase 2 Part 1

`CNC1(c2ccccc2Cl)CCCCC1=O` (racemic) [intranasal racemic ketamine, 1:1 mixture of the two enantiomers of ketamine: (R)-2-(2-chlorophenyl)-2-(methylamino)cyclohexanone and (S)-2-(2-chlorophenyl)-2-(methylamino)cyclohexanone] was tested. Which “S-STS CMCM score” value ([1]; Subject 1, from 18 units, range 0-52) did it give?
Its value is “zero”.

And the “S-STS CMCM score” value ([1]; Subject 2, from 22 units)?
The value was 3 units.

What about the “S-STS CMCM mean (SD) change from baseline” value (shortened to “S-STS CMCM mean (SD) change”) ([1]; 17 subjects enrolled, 24 hours post-dose) of the same compound?
The value was −20.6 (6.34).

What about the “S-STS CMCM mean (SD) change” value ([1]; 17 subjects enrolled, Day 16) of the same compound?
The value was −20.9 (3.66).

What about the “S-STS: patients (1 patient) with 4 points within-patient change” value ([1]; Day 1) of the same compound?
The value was 6%.

And the “S-STS: patients with >14 points within-patient change from baseline” value ([1]; Day 1)?
Its value is 94%.

What about the S-STS mean score ([1]; Day 1) of the same compound?
The S-STS mean score was 1.7.

What about the S-STS mean score ([1]; Day 16) of the same compound?
The S-STS mean score was 0.0.

What about the S-STS mean score ([1]; Day 29) of the same compound?
The S-STS mean score was 0.0.

What about the “S-STS CMCM mean (SD) change” value ([1]; final follow-up on Day 29/30) of the same compound?
Its value is −21.1 (3.71).

And the “mean S-STS CMCM score” value ([1]; final follow-up on Day 29/30)?
The value was 0.0 (0.00).

What about the serious adverse events ([2]; 90 mg IN+SOC, Part 1) of the same compound?
Its serious adverse events is “no serious adverse events”.

And the “severity of adverse events” value ([2]; 90 mg IN+SOC, Part 1)?
The value was “mild or moderate”.

And the “subjects who experienced a treatment-emergent adverse event (TEAE)” value ([2]; 17 subjects)?
Its value is 47%.

And the tolerability ([2]; Part 1)?
The tolerability was “well tolerated”.

And the “vital sign or blood pressure-related AEs” value ([2]; Part 1)?
Its value is “no vital sign or blood pressure-related AEs were reported”.

What about the TEAE feeling abnormal ([2]; n=2) of the same compound?
The TEAE feeling abnormal was 11.8%.

What about the TEAE nausea ([2]; n=2) of the same compound?
The TEAE nausea was 11.8%.

And the TEAE sedation ([2]; n=2)?
Its TEAE sedation is 11.8%.

What about the TEAE dizziness ([2]; n=3) of the same compound?
Its TEAE dizziness is 17.6%.

And the TEAE headache ([2]; n=4)?
Its TEAE headache is 23.5%.
